test system: human hepatoma Huh-7 cell line harboring a HCV replicon; assay: HCV replicon assay (inhibition of viral replication, luciferase); assay type: cell-based; conditions: Hepatitis C virus, 72 h; 2 μM; Huh-7 HCV replicon cells, 3 days incubation; inhibition of viral replication; read-out: % inhibition at 2 μM
Method in brief: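 Huh-7 replicon cells (1600/well) exposed 3 days at 37 °C to 10-point 3-fold dilutions, 0.44% DMSO. Replication measured by Dual-Glo luciferase, background from ITMN-191 wells; cytotoxicity by calcein AM. EC50/CC50 from Hill fit; % inhibition at fixed concentration derivable from fit.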

Point of comparison: `CC1CCC(C(=O)N(c2cc(C#CC(C)(C)C)sc2C(=O)O)C2CCN(C(=O)c3cccnc3)CC2)CC1` (centres unmarked) [Compound 140, 5-(3,3-dimethyl-but-1-ynyl)-3-{(4-methyl-cyclohexanecarbonyl)-[1-(pyridine-3-carbonyl)-piperidin-4-yl]-amino}-thiophene-2-carboxylic acid], inhibition at 2 µM 99.9%. Against it:
- CC1CCC(C(=O)N(c2cc(C#CC(C)(C)C)sc2C(=O)O)N(C)CCO)CC1 (centres unmarked) [Compound 135, 5-(3,3-dimethyl-but-1-ynyl)-3-[N′-(2-hydroxy-ethyl)-N′-methyl-N-(4-methyl-cyclohexanecarbonyl)-hydrazino]-thiophene-2-carboxylic acid] — lower, 99.8%
- CC(C)(C)C#Cc1cc(N(C(=O)[C@H]2CC[C@H](C)CC2)C2CCC(=NOCc3ccccn3)CC2)c(C(=O)O)s1 (stereo partly drawn) [Compound 112, 5-(3,3-Dimethyl-but-1-ynyl)-3-{(4-trans-methyl-cyclohexanecarbonyl)-[4-(pyridin-2-ylmethoxyimino)-cyclohexyl]-amino}-thiophene-2-carboxylic acid] — the same, 99.9%
- CC1CCC(C(=O)N(c2cc(C#CC(C)(C)C)sc2C(=O)O)N(C)CC2CCOCC2)CC1 (centres unmarked) [Compound 131, 5-(3,3-dimethyl-but-1-ynyl)-3-[N′-methyl-N-(4-methyl-cyclohexanecarbonyl)-N′-(tetrahydro-pyran-4-ylmethyl)-hydrazino]-thiophene-2-carboxylic acid] — the same, 99.9%
- CC(C)(C)C#Cc1cc(N(C(=O)[C@H]2CC[C@H](C)CC2)[C@H]2CCN(C(=O)OC3CCS(=O)(=O)C3)C2)c(C(=O)O)s1 (stereo partly drawn) [Compound 70, 3-[[2-carboxy-5-(3,3-dimethyl-but-1-ynyl)-thiophene-3-yl]-(trans-4-methylcyclohexanecarbonyl)-3-(S)-amino]-pyrrolidine-1-carboxylic acid 1,1-dioxo-tetrahydro-1λ^6-thiophene-3-yl ester] — lower, 99.1%
